Source: the supplement of paper PMC12463676, “Small-molecule dissolution of stress granules by redox modulation benefits ALS models” (Nature Chemical Biology, 2025)

How the values were obtained:
lipoamide = compound: NC(=O)CCCCC1CCSS1 [lipoamide]; assay: thermal stability z-score vs DMSO; higher = more thermally stabilized by treatment; settings: HeLa, lipoamide concentration 100 µM
Protocol: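 Cellular thermal proteome profiling in HeLa cells. Cells were treated with 100 µM lipoamide for 1 h, with or without 1 mM arsenate for a further 1 h, then heated to ten temperatures (37-66.3 °C), and soluble protein was quantified by TMT mass spectrometry relative to 0.1% DMSO controls. The thermal stability score (sum of log2 fold changes minus the abundance score) was transformed to a z-score; mean of n = 3 experiments.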

potassium arsenate = compound: O=[As]([O-])(O)O.[K+] [potassium arsenate]; assay: as above; settings: HeLa; arsenate concentration 1 mM
Protocol: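 Cellular thermal proteome profiling in HeLa cells treated with 1 mM arsenate for 1 h (DMSO pretreatment), heated to ten temperatures (37-66.3 °C). Soluble protein was quantified by TMT mass spectrometry relative to DMSO controls; the thermal stability score was transformed to a z-score; mean of n = 3 experiments.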

[1] = arsenate co-treatment: 1 mM arsenate 1 h
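Also: each temperature applied for 3 min, abundance score taken as mean log2 fold change at the two lowest temperatures, z-score obtained by mean subtraction and division by SD.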

Chain of UniProt Q7Z4H3 (Q7Z4H3 whole entry): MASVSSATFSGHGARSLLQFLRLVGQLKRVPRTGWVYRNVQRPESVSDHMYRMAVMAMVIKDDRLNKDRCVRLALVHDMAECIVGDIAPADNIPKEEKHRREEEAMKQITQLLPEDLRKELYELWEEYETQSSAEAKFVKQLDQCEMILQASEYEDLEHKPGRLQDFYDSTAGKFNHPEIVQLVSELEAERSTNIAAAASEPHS
Chain of UniProt P49773 (P49773 whole entry): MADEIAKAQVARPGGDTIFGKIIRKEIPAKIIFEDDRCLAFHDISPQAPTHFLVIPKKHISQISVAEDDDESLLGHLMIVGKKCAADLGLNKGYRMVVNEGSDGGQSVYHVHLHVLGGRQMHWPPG
Chain of UniProt O95714 (O95714 whole entry): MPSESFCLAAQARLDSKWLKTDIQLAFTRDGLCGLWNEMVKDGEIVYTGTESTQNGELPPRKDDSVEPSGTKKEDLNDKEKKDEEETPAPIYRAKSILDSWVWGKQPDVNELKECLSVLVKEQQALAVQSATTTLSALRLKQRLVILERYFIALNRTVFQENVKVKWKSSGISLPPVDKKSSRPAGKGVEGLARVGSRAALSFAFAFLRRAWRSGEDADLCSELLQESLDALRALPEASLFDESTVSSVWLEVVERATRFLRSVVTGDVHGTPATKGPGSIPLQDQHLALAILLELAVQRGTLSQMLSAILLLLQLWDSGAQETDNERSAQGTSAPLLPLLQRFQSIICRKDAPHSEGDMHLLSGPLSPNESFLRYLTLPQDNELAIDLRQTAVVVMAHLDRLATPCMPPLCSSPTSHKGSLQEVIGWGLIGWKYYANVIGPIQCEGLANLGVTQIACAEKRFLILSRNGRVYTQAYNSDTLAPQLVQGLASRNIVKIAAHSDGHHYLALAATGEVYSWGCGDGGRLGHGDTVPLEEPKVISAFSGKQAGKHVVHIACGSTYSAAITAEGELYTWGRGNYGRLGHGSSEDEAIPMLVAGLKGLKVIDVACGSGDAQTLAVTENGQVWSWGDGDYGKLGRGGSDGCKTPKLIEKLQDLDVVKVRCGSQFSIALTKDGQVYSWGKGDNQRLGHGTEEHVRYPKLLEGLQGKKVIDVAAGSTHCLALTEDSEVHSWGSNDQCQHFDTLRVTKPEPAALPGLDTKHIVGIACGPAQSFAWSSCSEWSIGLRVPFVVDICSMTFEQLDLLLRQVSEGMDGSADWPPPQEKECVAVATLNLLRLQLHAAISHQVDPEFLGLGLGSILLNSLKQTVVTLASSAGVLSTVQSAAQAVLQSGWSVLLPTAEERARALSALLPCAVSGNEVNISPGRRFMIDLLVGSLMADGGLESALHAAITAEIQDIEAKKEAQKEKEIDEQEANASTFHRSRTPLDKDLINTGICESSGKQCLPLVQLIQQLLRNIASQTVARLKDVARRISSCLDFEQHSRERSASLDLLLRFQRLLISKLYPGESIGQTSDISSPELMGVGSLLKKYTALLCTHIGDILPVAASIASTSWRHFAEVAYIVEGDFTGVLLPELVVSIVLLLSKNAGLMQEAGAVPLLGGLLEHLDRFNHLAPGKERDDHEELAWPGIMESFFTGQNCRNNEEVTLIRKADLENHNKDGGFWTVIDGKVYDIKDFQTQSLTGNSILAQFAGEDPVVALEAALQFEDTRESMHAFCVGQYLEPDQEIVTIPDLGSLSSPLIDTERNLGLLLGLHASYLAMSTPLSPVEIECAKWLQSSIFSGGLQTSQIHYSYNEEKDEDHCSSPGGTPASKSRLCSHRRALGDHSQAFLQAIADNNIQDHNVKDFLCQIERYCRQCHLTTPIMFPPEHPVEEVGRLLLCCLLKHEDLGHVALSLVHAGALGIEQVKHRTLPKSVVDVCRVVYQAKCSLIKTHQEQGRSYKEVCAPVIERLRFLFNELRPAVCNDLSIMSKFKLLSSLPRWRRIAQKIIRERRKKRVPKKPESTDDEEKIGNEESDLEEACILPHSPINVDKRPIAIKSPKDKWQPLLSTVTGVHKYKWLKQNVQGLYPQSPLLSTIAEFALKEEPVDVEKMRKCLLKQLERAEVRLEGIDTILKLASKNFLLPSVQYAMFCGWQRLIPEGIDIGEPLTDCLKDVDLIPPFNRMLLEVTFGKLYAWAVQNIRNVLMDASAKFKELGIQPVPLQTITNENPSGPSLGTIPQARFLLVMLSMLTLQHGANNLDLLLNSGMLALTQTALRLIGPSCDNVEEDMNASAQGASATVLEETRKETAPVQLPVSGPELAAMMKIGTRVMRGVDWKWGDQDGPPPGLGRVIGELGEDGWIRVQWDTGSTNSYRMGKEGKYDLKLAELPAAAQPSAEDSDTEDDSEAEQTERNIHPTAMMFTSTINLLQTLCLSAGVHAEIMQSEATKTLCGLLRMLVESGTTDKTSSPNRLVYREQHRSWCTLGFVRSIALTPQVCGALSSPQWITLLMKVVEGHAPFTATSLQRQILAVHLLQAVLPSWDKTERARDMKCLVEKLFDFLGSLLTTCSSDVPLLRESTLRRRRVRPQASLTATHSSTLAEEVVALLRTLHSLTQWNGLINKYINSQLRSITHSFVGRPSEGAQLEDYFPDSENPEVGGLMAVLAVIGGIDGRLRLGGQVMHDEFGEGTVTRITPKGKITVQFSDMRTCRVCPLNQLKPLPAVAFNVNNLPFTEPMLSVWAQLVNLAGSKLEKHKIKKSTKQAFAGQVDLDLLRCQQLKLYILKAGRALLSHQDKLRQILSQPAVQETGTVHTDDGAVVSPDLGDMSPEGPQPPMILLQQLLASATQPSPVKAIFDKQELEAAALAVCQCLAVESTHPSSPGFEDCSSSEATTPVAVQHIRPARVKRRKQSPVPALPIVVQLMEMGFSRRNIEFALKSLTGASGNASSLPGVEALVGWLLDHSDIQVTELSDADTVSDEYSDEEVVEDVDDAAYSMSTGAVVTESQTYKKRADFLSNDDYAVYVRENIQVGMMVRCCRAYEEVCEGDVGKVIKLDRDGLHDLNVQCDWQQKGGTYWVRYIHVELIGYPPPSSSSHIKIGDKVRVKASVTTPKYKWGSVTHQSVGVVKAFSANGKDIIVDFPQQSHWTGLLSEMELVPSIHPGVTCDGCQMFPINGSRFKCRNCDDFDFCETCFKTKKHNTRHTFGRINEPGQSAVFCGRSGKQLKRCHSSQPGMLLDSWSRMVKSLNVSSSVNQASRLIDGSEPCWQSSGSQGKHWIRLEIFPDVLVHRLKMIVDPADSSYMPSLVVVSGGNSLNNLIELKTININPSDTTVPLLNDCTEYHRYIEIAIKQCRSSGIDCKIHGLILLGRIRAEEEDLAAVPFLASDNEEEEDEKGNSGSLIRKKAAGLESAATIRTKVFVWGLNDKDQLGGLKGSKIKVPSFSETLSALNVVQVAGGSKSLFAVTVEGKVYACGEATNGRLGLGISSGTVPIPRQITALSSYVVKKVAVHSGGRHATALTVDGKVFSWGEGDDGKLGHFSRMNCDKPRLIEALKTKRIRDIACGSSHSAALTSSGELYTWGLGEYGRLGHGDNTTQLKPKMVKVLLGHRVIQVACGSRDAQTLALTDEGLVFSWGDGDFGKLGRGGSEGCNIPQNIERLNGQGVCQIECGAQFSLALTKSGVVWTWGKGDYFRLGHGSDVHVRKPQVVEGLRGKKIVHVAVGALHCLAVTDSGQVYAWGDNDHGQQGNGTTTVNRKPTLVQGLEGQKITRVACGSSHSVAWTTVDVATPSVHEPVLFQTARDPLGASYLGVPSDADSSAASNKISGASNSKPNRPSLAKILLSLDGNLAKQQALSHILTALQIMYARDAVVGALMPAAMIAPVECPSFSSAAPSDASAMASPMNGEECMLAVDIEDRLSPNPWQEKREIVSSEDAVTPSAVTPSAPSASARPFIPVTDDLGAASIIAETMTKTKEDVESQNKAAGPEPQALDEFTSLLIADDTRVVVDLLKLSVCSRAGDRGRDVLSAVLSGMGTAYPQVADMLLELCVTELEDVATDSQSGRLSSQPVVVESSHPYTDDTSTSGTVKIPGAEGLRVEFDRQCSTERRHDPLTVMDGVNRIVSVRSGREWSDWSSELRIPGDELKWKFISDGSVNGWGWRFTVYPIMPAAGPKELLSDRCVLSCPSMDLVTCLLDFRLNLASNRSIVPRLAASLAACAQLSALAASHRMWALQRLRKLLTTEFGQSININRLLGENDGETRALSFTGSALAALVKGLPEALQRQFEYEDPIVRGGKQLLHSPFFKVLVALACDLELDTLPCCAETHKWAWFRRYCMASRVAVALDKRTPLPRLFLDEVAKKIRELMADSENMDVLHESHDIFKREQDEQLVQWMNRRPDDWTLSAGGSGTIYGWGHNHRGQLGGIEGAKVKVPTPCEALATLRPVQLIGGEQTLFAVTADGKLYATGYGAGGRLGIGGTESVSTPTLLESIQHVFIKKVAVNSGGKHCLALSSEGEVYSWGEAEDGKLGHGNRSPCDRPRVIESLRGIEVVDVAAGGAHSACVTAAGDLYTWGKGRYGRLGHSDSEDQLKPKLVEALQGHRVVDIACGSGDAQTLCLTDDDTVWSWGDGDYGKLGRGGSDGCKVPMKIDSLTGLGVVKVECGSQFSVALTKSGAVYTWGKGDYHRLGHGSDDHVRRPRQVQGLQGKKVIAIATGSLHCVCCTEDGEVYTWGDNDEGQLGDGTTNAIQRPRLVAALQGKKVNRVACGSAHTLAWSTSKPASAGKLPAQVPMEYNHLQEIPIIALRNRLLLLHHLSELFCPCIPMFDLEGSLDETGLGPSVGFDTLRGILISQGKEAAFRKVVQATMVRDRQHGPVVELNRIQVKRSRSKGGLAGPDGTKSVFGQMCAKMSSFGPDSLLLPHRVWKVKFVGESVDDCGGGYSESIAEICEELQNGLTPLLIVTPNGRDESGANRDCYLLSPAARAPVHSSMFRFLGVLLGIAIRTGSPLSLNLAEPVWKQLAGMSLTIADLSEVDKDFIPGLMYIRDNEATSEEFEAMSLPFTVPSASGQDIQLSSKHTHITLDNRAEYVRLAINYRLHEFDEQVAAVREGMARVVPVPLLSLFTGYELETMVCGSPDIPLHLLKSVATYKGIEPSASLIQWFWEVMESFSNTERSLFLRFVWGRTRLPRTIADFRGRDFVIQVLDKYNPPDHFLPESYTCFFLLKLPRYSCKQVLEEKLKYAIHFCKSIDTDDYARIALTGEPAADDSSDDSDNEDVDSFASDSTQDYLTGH

| Target | thermal stability z-score (lipoamide; [1]) | thermal stability z-score (lipoamide; arsenate co-treatment: none) | thermal stability z-score (potassium arsenate) |
| --- | --- | --- | --- |
| HDAC2 (UniProt Q92769) | 4.76 | 4.53 | -0.0176 |
| HDAC3 (UniProt O15379) | -0.0189 | -0.0121 | -0.0998 |
| HDAC4 (UniProt P56524) | 0.426 | 0.45 | -0.19 |
| HDAC7 (UniProt Q8WUI4) | 0.158 | -0.253 | -0.534 |
| HDDC2 (UniProt Q7Z4H3) | -0.204 | -0.127 | -0.419 |
| HDDC3 (UniProt Q8N4P3) | -0.522 | -1.05 | -0.222 |
| HDGF (UniProt P51858) | 0.026 | 0.439 | 0.19 |
| HDGFRP2 (UniProt Q7Z4V5) | 0.576 | 0.499 | 0.126 |
| HDHD2 (UniProt Q9H0R4) | 0.338 | 0.00313 | -0.185 |
| HDHD3 (UniProt Q9BSH5) | -0.136 | -0.867 | -2.27 |
| HDLBP (UniProt Q00341) | -0.35 | 0.231 | -0.295 |
| HEATR1 (UniProt Q9H583) | -1.73 | -1.13 | -0.114 |
| HEATR3 (UniProt Q7Z4Q2) | -0.189 | 0.0325 | 0.285 |
| HEATR5A (UniProt Q86XA9) | -0.931 | 0.157 | 0.782 |
| HEATR5B (UniProt Q9P2D3) | -1.25 | -0.638 | -0.105 |
| HEATR6 (UniProt Q6AI08) | 0.393 | 0.194 | 0.868 |
| HEBP1 (UniProt Q9NRV9) | 0.436 | 0.615 | -0.000791 |
| HEBP2 (UniProt Q9Y5Z4) | 0.891 | 0.694 | 0.0122 |
| HECTD1 (UniProt Q9ULT8) | -0.353 | -0.164 | 0.641 |
| HECTD3 (UniProt Q5T447) | -0.331 | -0.0311 | 0.272 |
| HECTD4 (UniProt Q9Y4D8) | -0.345 | 0.341 | 0.284 |
| HEG1 (UniProt Q9ULI3) | -0.842 | 1.15 | 0.868 |
| HEL | -0.604 | -0.392 | -0.18 |
| HELB (UniProt Q8NG08) | -0.468 | -0.74 | -0.671 |
| HELLS (UniProt Q9NRZ9) | -0.0381 | -0.0408 | -0.282 |
| HELZ2 (UniProt Q9BYK8) | -0.0529 | -0.115 | -0.0872 |
| HELZ (UniProt P42694) | -0.153 | -0.0553 | -0.122 |
| HENMT1 (UniProt Q5T8I9) | -0.37 | -0.0316 | 0.197 |

| Target | thermal stability z-score (lipoamide; [1]) | thermal stability z-score (lipoamide; arsenate co-treatment: none) | thermal stability z-score (potassium arsenate) |
| --- | --- | --- | --- |
| HERC1 (UniProt Q15751) | -0.83 | -0.54 | -0.0795 |
| HERC2 (UniProt O95714) | -0.947 | -1.04 | 0.0415 |
| HERC4 (UniProt Q5GLZ8) | 0.298 | -0.11 | 0.726 |
| HERC5 (UniProt Q9UII4) | 0.139 | 0.601 | 0.512 |
| HERPUD1 (UniProt Q15011) | 0.186 | -0.201 | -0.94 |
| HEXA (UniProt P06865) | -0.146 | -0.412 | -0.0764 |
| HEXB (UniProt P07686) | -0.421 | -0.254 | 0.149 |
| HEXIM1 (UniProt O94992) | 0.736 | 0.591 | 0.384 |
| HEXIM2 (UniProt Q96MH2) | -0.264 | 0.637 | 0.53 |
| HFE (UniProt Q30201) | -0.0165 | 0.389 | 0.0645 |
| HGH1 (UniProt Q9BTY7) | 0.403 | 0.226 | 0.787 |
| HGS (UniProt O14964) | 0.268 | 0.638 | 0.102 |
| HIBADH (UniProt P31937) | -1.36 | -0.391 | -1.36 |
| HIBCH (UniProt Q6NVY1) | 0.0376 | -0.171 | -0.476 |
| HIF1AN (UniProt Q9NWT6) | -0.806 | -0.553 | 0.463 |
| HINT1 (UniProt P49773) | 1.13 | 0.532 | -0.189 |
| HINT2 (UniProt Q9BX68) | -0.459 | -0.337 | -1.98 |
| HINT3 (UniProt Q9NQE9) | 0.23 | 0.339 | -1.57 |
| HIP1 (UniProt O00291) | 0.0784 | 0.0537 | 0.215 |
| HIP1R (UniProt O75146) | 0.15 | 0.28 | -0.232 |
| HIRIP3 (UniProt Q9BW71) | -0.148 | 0.462 | 0.468 |
| HIST1H1B (UniProt P16401) | 1.01 | 0.679 | 1.19 |
| HIST1H1C (UniProt P16403) | 0.707 | 0.018 | 0.0976 |
| HIST1H1E (UniProt P10412) | 0.132 | 0.627 | 0.618 |
| HIST1H4A (UniProt P62805) | 0.954 | 0.814 | 2.61 |
| HK1 (UniProt P19367) | 0.339 | 0.466 | 0.159 |
| HK2 (UniProt P52789) | -0.636 | -0.168 | 0.715 |
